Values of other authors in US9017727B2, “Amino acid composition with improved dispersibility” (N.V. Nutricia, priority 2009, dated 2015).

Conditions: in water at 20 degrees Celsius

Row | Compound | Solubility (at 20° C.) (g/100 ml)
1 | N[C@@H](CS)C(=O)O [Cysteine] | 16 g/100 ml
2 | N[C@@H](CSSC[C@H](N)C(=O)O)C(=O)O [Cystine] | 0.009 g/100 ml
3 | NC(=O)CC[C@H](N)C(=O)O [Glutamine] | 3.73 g/100 ml
4 | N[C@@H](Cc1c[nH]cn1)C(=O)O [Histidine] | 3.84 g/100 ml
5 | CC[C@H](C)[C@H](N)C(=O)O [Isoleucine] | 4.02 g/100 ml
6 | C[C@H](N)C(=O)O [L-Alanine] | 15.8 g/100 ml
7 | CC(C)C[C@H](N)C(=O)O [Leucine] | 2.38 g/100 ml
8 | CSCC[C@H](N)C(=O)O [Methionine] | 4.8 g/100 ml
9 | CC(=O)N[C@@H](CS)C(=O)O [N-acetyl cysteine] | 17 g/100 ml
10 | N[C@@H](Cc1ccccc1)C(=O)O [Phenylalanine] | 2.74 g/100 ml
11 | N[C@@H](Cc1c[nH]c2ccccc12)C(=O)O [Tryptophan] | 1.06 g/100 ml
12 | CC(C)[C@H](N)C(=O)O [Valine] | 5.75 g/100 ml
13 | Cysteine HCL-anhydrous | 102 g/100 ml
